Results: US8685695B2, “Method for producing a mixture of bacteriophages and the use thereof in the therapy of antibiotic-resistant staphylococci” (priority 2008, dated 2014)
Read-outs that look alike come from different tables or passages of the source.

What was measured:
[1] = system: S. aureus M.06.02.0071 (USA300, MRSA, ST8); format: in vivo, mouse; settings: for Percentage of surviving animals: antibiotics 2 × day
Description: A non-sensitive antibiotic (ciprofloxacin) and a sensitive antibiotic (vancomycin) were also used to allow a comparison to be made.
Four groups, each of 20 mice weighing approximately 25 g, were first subjected to immunosuppression to ensure that they would be adequately infected by S. aureus. The immunosuppression began with an application of cyclophosphamide 4 days before the bacterial infection. A further application of cyclophosphamide was carried out 1 day before, together with a once-only administration of cortisone. The immunosuppression with cyclophosphamide was repeated at intervals of 3 days.
The strain of S. aureus which was selected for the infection was resistant to this antibiotic.
The strain of S. aureus which was selected for the infection (internal designation M.06.02.0071) was an isolate which was supplied by the Robert-Koch-Institut of Wernigerode. This S. aureus is a member of the group of USA300 (MRSA, ST8) strains which are considered particularly virulent due to the presence of the virulence factor PVL.
On day 0, the mice had 1.5×10^7 CFU of the S. aureus applied to them intratrachially under anaesthetic.
The medicament, which was applied intratrachially under anaesthetic, was a one-off dose of 5.5×10^10 PFU of a 1:1 mixture of the bacteriophages DSM 18722 and DSM 18723 either one hour before the infection or one hour after the infection. One group, beginning 1 day before the infection, was also treated subcutaneously with vancomycin twice a day.
The main parameter was the determination of lethality as a function of the time elapsed since the start of the test. The length of the test was 14 days.

[2] = system: S. aureus M.06.02.0071; experiment: Sensitivity of the strain to bacteriophages and antibiotics; format: cell-based, Staphylococcus aureus
[3] = system: S. aureus DSM 18421; experiment: Nanocalorimetric measurement of metabolism; format: cell-based, Staphylococcus aureus; settings: antibiotics 10 μg/ml; bacteriophages 4×10^9 PFU/ml
Description: (§1) Another sensitive method of examining the activity of micro-organisms is available in the form of nanocalorimetry. In this technique, metabolic action is measured by way of the heat it produces. The production of heat is measured from the voltage (in [p\/]) generated at thermocouples.
(§2) A detailed description of the measuring system used and the procedure can be found in: J. Lerchner et al., Thermochimica Acta 477, 2008, 48-53.
(§3) The concentration of the bacteriophages was 4×10^9 PFU/ml.

[4] = system: S. aureus M.06.02.0071; experiment: Nanocalorimetric measurement of metabolism; format: cell-based, Staphylococcus aureus; settings: antibiotics 10 μg/ml; bacteriophages 4×10^9 PFU/ml
Description: as §1, §2, §3

[5] = system: S. aureus from tissue (M.06.02.0071, mouse pneumonia model); experiment: Nanocalorimetric measurement of metabolism, bacteria isolated from lung tissue; format: cell-based, Staphylococcus aureus; settings: antibiotics 10 μg/ml, bacteriophages 4×10^9 PFU/ml
Description: as §1, §2, §3

[6] = system: S. aureus DSM 18421; experiment: Sensitivity of the strain to bacteriophages and antibiotics; format: cell-based, Staphylococcus aureus
[7] = system: Staphylococcus aureus DSM 18421; experiment: Lysis of Staphylococcus aureus DSM 18421 in saliva (viable cell count); format: cell-based
Description: • Morning saliva (before breakfast and before cleaning of teeth) was collected from different individual persons. • The saliva samples were centrifuged for 5 min at room temperature at 12,000 rpm. • The supernatant liquid was removed and sterile filtered (0.8 μm pre-filter, then a 0.22 μm filter). • The samples of saliva were mixed 1:1 in a sterile vessel. 7.2 Incubation of the Preparations for Lysis • To the saliva prepared as described above were also added: • approx. 1×10^4 CFU/ml of DSM 18421 (from a suitable dilution of the overnight culture), • approx. 1×10^8 PFU/ml of phages (Simba Top, 1:1 mixture of purified M and K phages). • Used in addition were serralysin (100 U/ml), dornase (25 μml) or benzonase (25 μml) or a combination of these enzymes. • The enzymes were added right at the start of the incubation. • A control incubation was carried out at the same time in which the phages were replaced by adding the same volume of storage buffers (for composition see below). • The total volume of all the preparations was 2 ml. • The incubation was carried out in 10 ml glass penicillin bottles at 37° C. and 200 rpm (in a shaker incubator) 7.3 Determination of the Viable Cell Count (CFU/ml) After 6 h • After an incubation period of 6 h, an aliquot was taken from each preparation and a factor-of-ten dilution series prepared from it. • 2-5 suitable dilutions were selected from each dilution series and 2×100 μl (twin samples) of each were plated (with a Drigalski spatula). • The plating was performed onto LB agar in the case of the phage-free preparations and onto LB agar containing 0.01% citrate in the case of the preparations containing phages. • After at least 16 h of incubation at 37° C., the colony forming units (CFU's) were counted on each plate • Only plates which had at least 20 CFU's were used to calculate the FIGURE for CFU/ml • A representation in graph form was prepared by plotting CFU/ml (in logarithmic form) against the period of incubation.
Period of incubation: 6 hours Medium: saliva (human; mixture)

[8] = Table 10, 6 h, 37° C., phages approx. 1×10^8 PFU/ml, serralysin 100 U/ml

Compound	Percentage of surviving animals ([1]; 0 hours after infection) [%]	Percentage of surviving animals ([1]; 5 hours after infection) [%]	Percentage of surviving animals ([1]; 19 hours after infection) [%]	Percentage of surviving animals ([1]; 23 hours after infection) [%]	Percentage of surviving animals ([1]; 29 hours after infection) [%]	Percentage of surviving animals ([1]; 43 hours after infection) [%]	Percentage of surviving animals ([1]; 47 hours after infection) [%]	Sensitivity of the strain, in words [2]	Mortality in the acute phase, in words ([1]; bacteriophages one-off before the infection, vancomycin prior and thereafter continuous, compared with the placebo)	% relative to control [3] [%]	Difference voltage [3] [μV]	% relative to control [4] [%]	Difference voltage [4] [μV]	% relative to control [5] [%]	Difference voltage [5] [μV]	Sensitivity of the strain, in words [6]	Effect on the colony count of S. aureus in saliva, in words ([7]; 6 h)	Colony count, % of control without phages [7, 8] [%]	Viable cell count [7, 8]
O=C(O)c1cn(C2CC2)c2cc(N3CCNCC3)c(F)cc2c1=O [Ciprofloxacin, ciprofloxacin]	100	100	60	45	35	10	10	resistant	–	–	–	–	–	–	–	–	–	–	–
CN[C@H](CC(C)C)C(=O)N[C@H]1C(=O)N[C@@H](CC(N)=O)C(=O)N[C@H]2C(=O)N[C@H]3C(=O)N[C@H](C(=O)N[C@H](C(=O)O)c4cc(O)cc(O)c4-c4cc3ccc4O)[C@H](O)c3ccc(c(Cl)c3)Oc3cc2cc(c3O[C@@H]2O[C@H](CO)[C@@H](O)[C@H](O)[C@H]2O[C@H]2C[C@](C)(N)[C@H](O)[C@H](C)O2)Oc2ccc(cc2Cl)[C@H]1O [Vancomycin, vancomycin]	–	–	–	–	–	–	–	sensitive	reduction in mortality	36	−3.681	41	−4.132	61	−0.438	sensitive	–	–	–
serralysin	–	–	–	–	–	–	–	–	–	–	–	–	–	–	–	–	did not cause a reduction in the colony count	130	1.14 × 10^6 CFU/ml
